Assay results reported in ChEMBL document CHEMBL1154493, “Oxidative inactivation of protein tyrosine phosphatase 1B by organic hydroperoxides” (Bioorg Med Chem Lett, 2008).
Activity calls are given as the source filed them. The calls are words filed in the database; no cut-off is given here.

Key:
[1] = biological target: T1, Tyrosine-protein phosphatase non-receptor type 1 (Homo sapiens) (UniProt P18031); experiment: Inactivation of PTP1B at 150 nM
T1 sequence (whole entry): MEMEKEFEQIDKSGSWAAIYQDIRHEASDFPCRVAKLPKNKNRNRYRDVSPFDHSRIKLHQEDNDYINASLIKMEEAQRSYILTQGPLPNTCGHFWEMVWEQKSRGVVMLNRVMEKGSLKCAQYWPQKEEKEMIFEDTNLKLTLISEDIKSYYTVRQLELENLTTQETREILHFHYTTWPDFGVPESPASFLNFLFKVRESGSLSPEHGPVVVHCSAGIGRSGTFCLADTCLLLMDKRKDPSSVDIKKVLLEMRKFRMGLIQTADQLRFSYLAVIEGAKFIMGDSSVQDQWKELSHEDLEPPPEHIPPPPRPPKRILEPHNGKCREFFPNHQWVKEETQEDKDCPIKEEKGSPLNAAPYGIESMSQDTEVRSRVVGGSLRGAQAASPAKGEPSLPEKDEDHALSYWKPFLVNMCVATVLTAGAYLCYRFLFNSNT

[2] = biological target: T1, Tyrosine-protein phosphatase non-receptor type 1 (Homo sapiens); experiment: Inactivation of PTP1B at 15 uM after 15 sec in presence of glutathione
[3] = biological target: T2, Tyrosine-protein phosphatase non-receptor type 1 (Homo sapiens, UniProt P18031); experiment: Inhibition of PTP1B
T2 sequence (P18031 whole entry): T1 sequence (whole entry)

[4] = biological target: T1, Tyrosine-protein phosphatase non-receptor type 1 (Homo sapiens); experiment: Inactivation of PTP1B at 15 uM after 15 sec
[5] = biological target: T1, Tyrosine-protein phosphatase non-receptor type 1 (Homo sapiens); experiment: Inactivation of PTP1B at 15 uM after 15 sec in presence of phosphate ion
[6] = biological target: T1, Tyrosine-protein phosphatase non-receptor type 1 (Homo sapiens); experiment: Inactivation of PTP1B assessed as return of enzyme activity at 5 uM after 10 mins in presence of dithiothreitol
[7] = biological target: T1, Tyrosine-protein phosphatase non-receptor type 1 (Homo sapiens); experiment: Inactivation of PTP1B assessed as return of enzyme activity at 800 nM for 10 mins in presence of dithiothreitol

| Structure (SMILES) | Activity [1] | Activity [2] | Ki [3] | Activity [4] | Activity [5] | Activity [6] | Activity [7] |
| --- | --- | --- | --- | --- | --- | --- | --- |
| O=C(O)c1ccccc1C(=O)OO | Active | – | – | – | – | – | – |
| O=C(OO)c1cccc(Cl)c1 | Active | – | – | – | – | – | – |
| CC(=O)OO [ETHANEPEROXOIC ACID] | – | 29% | 17 mM | 88% | 49% | 10% | 73% |
